Reference: patent US4532202A, “Coupler for photography” (Konishiroku Photo Industry Co., Ltd., priority 1982, dated 1985)
Each block holds one compound with its values, some of them ahead of it.

Columns and labels:
[1] = Solubility test of couplers in di-n-butyl phthalate / ethyl acetate, visual evaluation of crystal precipitation; type: physicochemical; design: key: A: no precipitation; B: slight precipitation; C: precipitation in large amount; settings: 1 g coupler in 1 ml di-n-butyl phthalate and 4 ml ethyl acetate, dissolved at 70° C., left to stand at 20° C.
Description: Solubility tests were conducted by use of the couplers for photography of this invention and Control couplers as indicated in Table 2 below. Each one gram of respective couplers was added to a mixture of 1 ml of di-n-butyl phthalate and 4 ml of ethyl acetate and the resulting mixture was heated at 70° C. for complete dissolution, followed by sealing with a stopper. Each sample was left to stand at 20° C. and precipitation of crystals was evaluated by visual observation. In Table 2, in the evaluation column, A represents no precipitation, B slight precipitation and C precipitation in large amount.

[2] = Photographic characteristics (sensitivity, maximum density, maximum absorption) of silver halide color photographic material containing coupler; settings: cyan dye formed
Description: The resultant solution was mixed with 5 ml of an aqueous 10% solution of Alkanol B (aklylnaphthalene sulfonate, produced by Du Pont de Nemours & Co.) and 200 ml of an aqueous 5% gelatin solution and emulsified by means of a colloid mill to prepare respective coupler dispersions. Then, each of these coupler dispersions was added to 500 g of a gelatin-silver chlorobromide emulsion, and the mixture was applied on polyethylene coated paper, followed by drying, to prepare six kinds of light-sensitive silver halide color photographic materials. These samples were subjected to wedge exposure following the conventional procedure and then processed as follows.
Processing step (30° C.)
Color developing 3 min. 30 sec.
Bleach-fixing 1 min. 30 sec.
Washing with water 2 min.
In the following, compositions of respective processing solutions are shown.
[Composition of color developing solution]
4-Amino-3-methyl-N--ethyl-N--
(β-methanesulfonamidoethyl)-aniline sulfate
Sodium hexamethaphosphate 2.5 g
Anhydrous sodium sulfite 1.85 g
Made up to one liter with addition of water, and adjusted to pH 10.30 with sodium hydroxide.
[Composition of bleach-fixing solution]
Iron ammonium salt of ethylenediaminetetraacetic
Diammonium salt of ethylenediaminetetraacetic
Ammonium thiosulfate 124.5 g
Sodium metabisulfite 13.3 g
Anhydrous sodium sulfite 2.7 g
Made up to one liter with addition of water.
For samples obtained by the above processing, photographic characteristics were measured respectively. Measurements were conducted by use of PDA-60 Model sensitometer (produced by Konishiroku Photo Industry Co.) The results are shown in Table 3 below.
The sensitivity values are shown as relative sensitivities to the value of the sample having the highest sensitivity as 100.

SMILES: CCCCCCCCCCCCC(Oc1ccc(C(C)(C)CC)cc1C(C)(C)CC)C(=O)Nc1cc(O)c(NC(=O)c2c(F)c(F)c(F)c(F)c2F)cc1Cl (stereo not drawn) [Control coupler (D)]
Evaluation of solubility After 6 hours [1]: B
Evaluation of solubility After 12 hours [1]: C
Evaluation of solubility After one hour [1]: B

SMILES: CCC(Oc1ccc(C(C)(C)CC)cc1C(C)(C)CC)C(=O)Nc1cc(Cl)c(C)c(Cl)c1O (stereo not drawn) [Control coupler (E)]
Maximum absorption [2]: 654 nm

SMILES: CCCCCCCCCCCCC(Oc1ccc(NS(=O)(=O)CCCC)cc1)C(=O)Nc1cc(O)c(NC(=O)c2ccccc2)cc1Cl (stereo not drawn) [Control coupler (F)]
Maximum absorption [2]: 641 nm

SMILES: CCCCCCCCCCCCC(Oc1ccc(O)c(C(C)(C)C)c1)C(=O)Nc1ccc(NC(=O)c2ccccc2F)c(O)c1 (stereo not drawn) [Control coupler (G)]
Maximum absorption [2]: 640 nm

SMILES: CC(C)C(Oc1ccc(C(C)(C)C)cc1C(C)(C)C)C(=O)Nc1cc(O)c(NC(=O)c2c(F)c(F)c(F)c(F)c2F)cc1Cl (stereo not drawn) [Exemplary compound (I-3)]
Evaluation of solubility After 6 hours [1]: A
Evaluation of solubility After 12 hours [1]: A
Evaluation of solubility After one hour [1]: A

SMILES: CCCCCCCCCCCCCCCc1cccc(OC(C(=O)Nc2cc(O)c(NC(=O)c3c(F)c(F)c(F)c(F)c3F)cc2Cl)C(C)C)c1 (stereo not drawn) [Exemplary compound (I-10), 2-(2,3,4,5,6-pentafluoro)benzamido-4-chloro-5-[α-(m-pentadecylphenoxy)-β-methylbutaneamido]phenol]
Maximum absorption [2]: 654 nm

SMILES: CCCCS(=O)(=O)Nc1ccc(OC(C(=O)Nc2cc(O)c(NC(=O)c3c(F)c(F)c(F)c(F)c3F)cc2Cl)C(C)C)cc1 (stereo not drawn) [Exemplary compound (I-11)]
Maximum absorption [2]: 657 nm

Continued, values first:

Evaluation of solubility After 6 hours [1]: C
Evaluation of solubility After 12 hours [1]: C
Evaluation of solubility After one hour [1]: B
SMILES: CCC(Oc1ccc(C(C)(C)CC)cc1C(C)(C)CC)C(=O)Nc1cc(O)c(NC(=O)c2c(F)c(F)c(F)c(F)c2F)cc1Cl (stereo not drawn) [Control coupler (B)]

Evaluation of solubility After 6 hours [1]: C
Evaluation of solubility After 12 hours [1]: C
Evaluation of solubility After one hour [1]: B
SMILES: CCCCCCCCC(Oc1ccc(C(C)(C)CC)cc1C(C)(C)CC)C(=O)Nc1cc(O)c(NC(=O)c2c(F)c(F)c(F)c(F)c2F)cc1Cl (stereo not drawn) [Control coupler (C)]

Evaluation of solubility After 6 hours [1]: A
Evaluation of solubility After 12 hours [1]: A
Evaluation of solubility After one hour [1]: A
Maximum absorption [2]: 655 nm
SMILES: CCC(C)(C)c1ccc(OC(C(=O)Nc2cc(O)c(NC(=O)c3c(F)c(F)c(F)c(F)c3F)cc2Cl)C(C)C)c(C(C)(C)CC)c1 (stereo not drawn) [Exemplary compound (I-2), 2-(2,3,4,5,6-pentafluoro)benazmido-4-chloro-5-[α-(2,4-di-t-amylphenoxy)-β-methylbutaneamido]phenol]

Evaluation of solubility After 6 hours [1]: A
Evaluation of solubility After 12 hours [1]: A
Evaluation of solubility After one hour [1]: A
SMILES: CCC(C)C(Oc1ccc(C(C)(C)CC)cc1C(C)(C)CC)C(=O)Nc1cc(O)c(NC(=O)c2c(F)c(F)c(F)c(F)c2F)cc1Cl (stereo not drawn) [Exemplary compound (I-4)]
